Experimental data as given in US9598362B2, “Benzidine derivative, method for preparing same, and pharmaceutical composition containing benzidine derivative for treating liver disease caused by hepatitis C virus” (priority 2013, dated 2017).
Like-named read-outs stand apart in the source and are kept apart here.

Columns and labels:
[1] = system: HCV (JFH-5aFlucm4); assay: Evaluation of anti-HCV activity 1: huh7.5.1 cells inoculated with HCV carrying renilla luciferase reporter; assay type: cell-based; details: Hepatitis C virus
Method: To evaluate the anti-HCV activity of the compound represented by formula 1 of the present invention, the following experiment was performed.
The hepatoma cell line huh7.5.1 was distributed in a 12-well cell culture plate at the density of 50,000 cells/well. The cells were cultured in DMEM (Dulbecco's Modified Eagle's Medium 12800-017, GIBCO Co.) supplemented with 10% (v/v) FBS (Fetal Bovine Serum SH30406.02, Hyclone Co.) and 1% (v/v) antibiotics (penicillin/streptomycin solution SV30010, Hyclone Co.) in a 37° C. 6.0% CO2 incubator (CO2 Incubator 311, Forma Scientific Co, Lnc. USA) for 24 hours to lead cell attachment on the plate. Then, the cells were inoculated with HCV (JFH-5aFlucm4, PLoS One. 2011; 6(8):e228808.) having renilla luciferase gene as a reporter for 3 hours. Upon completion of the virus inoculation, the cell culture medium was replaced with the medium containing the compounds prepared in Examples 1˜24 at the concentration of 1 μM each. The cells were cultured in a 37° C. 6.0% CO2 incubator (CO2 Incubator 311, Forma Scientific Co, Lnc. USA) for 3 days. Three days after the infection, the cell culture medium was collected to measure the cytotoxicity in the following Experimental Example 3. The cells attached on the plate were washed with PBS (phosphate buffered saline) and then lysed by treating 100 μl of 1× passive lysis buffer (Promega, E1941). The cell lysate (10 μl) was added to renilla luciferase assay reagent (50 μl) in renilla luciferase assay system (Promega, E2820), followed by measurement of luminescence for 10 seconds using the luciferase measure program with Luminometer (GLOMAX 20/20 Luminometer, Promega). At this time, the measurement of luminescence was performed in triplicate with the groups treated with the compounds of Examples 1˜24 and the non-treated control group. The mean value was calculated and compared. The luminescence of each compound over the concentration was converted into EC50 (half maximal effective concentration) by using sigma plot program, and the results are shown in Table 2.

[2] = target: hERG (Homo sapiens, UniProt Q12809); assay: hERG ligand binding, fluorescence polarization with red fluorescent hERG channel ligand
[3] = Evaluation of plasma stability; assay type: in vitro ADME, mouse; details: plasma:phosphate buffer pH 7.4 1:1, 37° C., LC-MS/MS, relative to time 0
Method: Particularly, the compound of Example 16 was dissolved in dimethylsulfoxide at the concentration of 5 μM, resulting in the preparation of the sample solution. The plasma solution (495 μl) was prepared by mixing phosphate buffer (pH 7.4) and plasma at the ratio of 1:1, which was loaded in each well of a 96-well plate. The sample solution prepared above was added to each well (5 μl) of the plate. Then, the plate was covered with a lid, followed by shaking-culture at 100 rpm at 37° C. for 0.5, 1, and 4 hours in the orbital shaker. The reaction was terminated by adding 0-5° C. acetonitrile. At this time, in the case when the process time was 0 after the sample treatment, the reaction was terminated with acetonitrile at the same time as the sample solution was loaded in the plate containing the plasma solution. Upon completion of the reaction, the plate was kept frozen. Then, the plate was centrifuged at 3000 rpm for 10 minutes. Upon completion of the centrifugation, the supernatant (100 μl) was loaded in each well of a 96-well plate, followed by LC-MS/MS. The result obtained by measuring the plasma survival rate at the process time 0 was considered as the standard, based on which each time-dependent plasma survival rate was calculated by considering the concentration over the time of each sample. The results are presented in Tale 6.

[4] = system: HCV replicon NK/R2AN; assay: Evaluation of anti-HCV activity 2: inhibition of HCV replication, huh7.5.1 cells with replicon NK/R2AN, renilla luciferase; assay type: cell-based; details: for EC50: Hepatitis C virus
Method: To evaluate the anti-HCV activity, that is the activity to inhibit HCV replication, of the compound represented by formula 1 of the present invention, the following experiment was performed.
The hepatoma cell line huh7.5.1 having NK/R2AN, the replicon with which the replication and translation of HCV could be measured, was distributed in a 12-well cell culture plate at the density of 50,000 cells/well. The cells were cultured in DMEM (Dulbecco's Modified Eagle's Medium 12800-017, GIBCO Co.) supplemented with 10% (v/v) FBS (Fetal Bovine Serum SH30406.02, Hyclone Co.), 1% (v/v) antibiotics (penicillin/streptomycin solution SV30010, Hyclone Co.), and G418 (600 μg/mL, Calbiochem) in a 37° C. 6.0% CO2 incubator (CO2 Incubator 311, Forma Scientific Co, Lnc. USA) for 24 hours to lead cell attachment on the plate. Then, the cells were inoculated with HCV having renilla luciferase gene as a reporter for 3 hours. Upon completion of the virus inoculation, the cell culture medium was replaced with the medium containing the compounds prepared in Examples 1˜24 were added to the culture medium at the concentrations of 40 pM˜1 μM each. The cells were cultured in a 37° C. 6.0% CO2 incubator (CO2 Incubator 311, Forma Scientific Co, Lnc. USA) for 3 days. Three days after the infection, the cell culture medium was collected to measure the cytotoxicity in the following Experimental Example 3. The cells attached on the plate were washed with PBS (phosphate buffered saline) and then lysed by treating 100 μl of 1× passive lysis buffer (Promega, E1941). The cell lysate (10 μl) was added to renilla luciferase assay reagent (50 μl) in renilla luciferase assay system (Promega, E2820), followed by measurement of luminescence for 10 seconds using the luciferase measure program with Luminometer (GLOMAX 20/20 Luminometer, Promega). At this time, the measurement of luminescence was performed in triplicate with the groups treated with the compounds of Examples 1˜24 and the non-treated control group. The mean value was calculated and compared. The luminescence of each compound over the concentration was converted into EC50 (half maximal effective concentration) by using sigma plot program, and the results are shown in Table 3. At this time, when EC50 was under 100 pM, it was marked as A; when EC50 was in the range of 100 pM 1 nM, it was marked as B; when EC50 was in the range of 1 nM˜100 nM, it was marked as C; and when EC50 was over 100 nM, it was marked as D. The results are shown in Table 3.

[5] = Huh-7.5.1, 72 h, read-out: EC50 grade

hERG, sequence (Q12809 whole entry): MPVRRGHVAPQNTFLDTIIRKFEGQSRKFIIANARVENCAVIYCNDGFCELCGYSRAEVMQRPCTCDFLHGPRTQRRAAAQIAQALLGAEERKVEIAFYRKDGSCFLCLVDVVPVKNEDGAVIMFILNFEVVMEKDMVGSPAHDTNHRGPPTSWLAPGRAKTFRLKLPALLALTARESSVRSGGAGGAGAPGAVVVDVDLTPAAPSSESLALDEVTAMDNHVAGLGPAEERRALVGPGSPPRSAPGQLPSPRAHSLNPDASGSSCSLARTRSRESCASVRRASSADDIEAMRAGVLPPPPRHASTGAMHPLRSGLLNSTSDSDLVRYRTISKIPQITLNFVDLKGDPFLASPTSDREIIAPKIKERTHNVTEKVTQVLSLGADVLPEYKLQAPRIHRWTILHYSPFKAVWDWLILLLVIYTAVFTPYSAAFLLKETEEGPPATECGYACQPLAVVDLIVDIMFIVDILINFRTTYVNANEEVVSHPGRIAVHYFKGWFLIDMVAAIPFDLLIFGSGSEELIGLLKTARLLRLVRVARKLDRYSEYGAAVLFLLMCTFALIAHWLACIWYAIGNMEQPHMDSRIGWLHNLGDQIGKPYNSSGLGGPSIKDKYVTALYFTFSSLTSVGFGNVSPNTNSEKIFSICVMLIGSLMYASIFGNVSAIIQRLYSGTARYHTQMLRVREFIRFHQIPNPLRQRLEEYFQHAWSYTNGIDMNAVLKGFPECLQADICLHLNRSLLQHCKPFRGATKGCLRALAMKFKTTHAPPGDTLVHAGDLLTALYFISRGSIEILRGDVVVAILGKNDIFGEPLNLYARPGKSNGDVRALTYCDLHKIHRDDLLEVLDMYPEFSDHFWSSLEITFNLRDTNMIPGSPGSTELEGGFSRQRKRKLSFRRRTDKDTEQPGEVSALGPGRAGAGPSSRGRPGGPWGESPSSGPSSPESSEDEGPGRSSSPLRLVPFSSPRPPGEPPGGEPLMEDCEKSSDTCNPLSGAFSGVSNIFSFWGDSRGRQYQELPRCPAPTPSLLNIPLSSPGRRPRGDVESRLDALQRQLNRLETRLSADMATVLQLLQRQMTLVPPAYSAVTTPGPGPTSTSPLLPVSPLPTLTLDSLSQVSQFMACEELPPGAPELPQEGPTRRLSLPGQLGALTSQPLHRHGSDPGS

COC(=O)N[C@@H](C(=O)N1CCC[C@H]1C(=O)Nc1ccc(-c2ccc(NC(=O)[C@@H]3CCCN3C(=O)[C@H](NC(=O)OC)c3ccccc3)cc2)cc1)c1ccccc1 [Example 16, dimethyl(1S,1′S)-2,2′-((2S,2′S)-2,2′-(biphenyl-4,4′-diylbis(azandiyl))bis(oxomethylene)bis(pyrrolidine-2,1-diyl))bis(2-oxo-1-phenylethane-2,1-diyl)dicarbamate]
EC50 ([1]; Huh-7.5.1): < 1 nM | EC50 [1, 5]: < 1 nM | IC50 [2]: 9800 nM | Survival rate after 0.5 h [3]: >99% | Survival rate after 1 h [3]: >99% | EC50 ([4]; Huh-7.5.1): < 0.1 nM | EC50 [4, 5]: < 0.1 nM | EC50 (in words) ([4]; duplicated HCV treated with compound): significantly low
